We go through 1 compound from article PMC5218480 (PLoS ONE, 2017).

This test deals with MV-4-11 cells. Nature of the test: Gene expression microarray analysis (Affymetrix PrimeView) and GSEA. In kind it is cell-based, human. More on the design: RFU PODN (11730768_x_at) / Fold change /veh PODN (11730768_x_at) / RFU LINC00158 (11744669_a_at) / Fold change /veh LINC00158 (11744669_a_at) / RFU DUSP10 (11751237_a_at) / Fold change /veh DUSP10 (11751237_a_at) / RFU ID3 (11757404_x_at) / Fold change /veh ID3 (11757404_x_at) / RFU PLEKHG5 (11737974_s_at) / Fold change /veh PLEKHG5 (11737974_s_at) / RFU LRRC4B (11730491_at) / Fold change /veh LRRC4B (11730491_at) / RFU GIMAP4 (11747438_a_at) / Fold change /veh GIMAP4 (11747438_a_at) / RFU KRT8 (11758183_x_at) / Fold change /veh KRT8 (11758183_x_at) / RFU CNN1 (11734310_a_at) / Fold change /veh CNN1 (11734310_a_at) / RFU VPS37D (11726825_at) / Fold change /veh VPS37D (11726825_at) / RFU C10orf10 (11716522_x_at) / Fold change /veh C10orf10 (11716522_x_at) / RFU KIR2DL2 /// KIR2DL4 /// KIR2DL5A /// KIR2DL5B /// KIR2DS1 /// KIR2DS2 /// KIR2DS3 /// KIR2DS4 /// KIR3DL3 /// KIR3DL3 /// KIR3DS1 (11738374_at) / Fold change /veh KIR2DL2 /// KIR2DL4 /// KIR2DL5A /// KIR2DL5B /// KIR2DS1 /// KIR2DS2 /// KIR2DS3 /// KIR2DS4 /// KIR3DL3 /// KIR3DL3 /// KIR3DS1 (11738374_at) / RFU C1QL1 (11718748_at) / Fold change /veh C1QL1 (11718748_at) / RFU TMPRSS4 (11747572_a_at) / Fold change /veh TMPRSS4 (11747572_a_at) / RFU HAMP (11756126_x_at) / Fold change /veh HAMP (11756126_x_at) / RFU RNFT2 (11725882_a_at) / Fold change /veh RNFT2 (11725882_a_at) / RFU NR4A2 (11747474_a_at) / Fold change /veh NR4A2 (11747474_a_at) / RFU ABCC12 (11746883_a_at) / Fold change /veh ABCC12 (11746883_a_at) / RFU TMEM136 (11760407_x_at) / Fold change /veh TMEM136 (11760407_x_at) / RFU CLDN22 /// WWC2 (11732394_at) / Fold change /veh CLDN22 /// WWC2 (11732394_at) / RFU HLA-DPB1 (11760878_x_at) / Fold change /veh HLA-DPB1 (11760878_x_at) / RFU SPINT1 (11716480_a_at) / Fold change /veh SPINT1 (11716480_a_at) / RFU GAP43 (11754022_s_at) / Fold change /veh GAP43 (11754022_s_at) / RFU A4GNT (11735810_at) / Fold change /veh A4GNT (11735810_at) / RFU PRB3 (11715151_x_at) / Fold change /veh PRB3 (11715151_x_at) / RFU TUBB4B (11761932_at) / Fold change /veh TUBB4B (11761932_at) / RFU CAPN14 (11732068_a_at) / Fold change /veh CAPN14 (11732068_a_at) / RFU TMCC2 (11721928_a_at) / Fold change /veh TMCC2 (11721928_a_at) / RFU IRGQ (11745062_a_at) / Fold change /veh IRGQ (11745062_a_at) / RFU FAM174B (11720279_a_at) / Fold change /veh FAM174B (11720279_a_at) / RFU TMPRSS4 (11748680_a_at) / Fold change /veh TMPRSS4 (11748680_a_at) / RFU FAM212B (11763350_a_at) / Fold change /veh FAM212B (11763350_a_at) / RFU PLEKHG5 (11743358_a_at) / Fold change /veh PLEKHG5 (11743358_a_at) / RFU ZSCAN30 (11745921_a_at) / Fold change /veh ZSCAN30 (11745921_a_at) / RFU CMKLR1 (11741424_a_at) / Fold change /veh CMKLR1 (11741424_a_at) / RFU LOC101060620 /// MAPK8IP1 (11723275_at) / Fold change /veh LOC101060620 /// MAPK8IP1 (11723275_at) / RFU SPTSSB (11747773_x_at) / Fold change /veh SPTSSB (11747773_x_at) / RFU PRSS12 (11739890_at) / Fold change /veh PRSS12 (11739890_at) / RFU BIN1 (11741810_x_at) / Fold change /veh BIN1 (11741810_x_at) / RFU WNT11 (11732464_a_at) / Fold change /veh WNT11 (11732464_a_at) / RFU C10orf10 (11716521_a_at) / Fold change /veh C10orf10 (11716521_a_at) / RFU C5orf56 (11738089_at) / Fold change /veh C5orf56 (11738089_at) / RFU CYB561 (11721691_x_at) / Fold change /veh CYB561 (11721691_x_at) / RFU ANKRD19P (11752326_a_at) / Fold change /veh ANKRD19P (11752326_a_at) / RFU OR2T12 /// OR2T33 /// OR2T8 (11738714_s_at) / Fold change /veh OR2T12 /// OR2T33 /// OR2T8 (11738714_s_at) / RFU VCAN (11748164_a_at) / Fold change /veh VCAN (11748164_a_at) / RFU JSRP1 (11732532_at) / Fold change /veh JSRP1 (11732532_at) / RFU KRTAP10-11 (11738290_x_at) / Fold change /veh KRTAP10-11 (11738290_x_at) / RFU MYO3A (11730013_a_at) / Fold change /veh MYO3A (11730013_a_at) / RFU EBF3 (11725865_a_at) / Fold change /veh EBF3 (11725865_a_at) / RFU CAMK2N1 (11719241_x_at) / Fold change /veh CAMK2N1 (11719241_x_at) / RFU C5orf56 (11738088_a_at) / Fold change /veh C5orf56 (11738088_a_at) / RFU OLFML3 (11715873_a_at) / Fold change /veh OLFML3 (11715873_a_at) / RFU LOC100653217 /// NTM (11731650_a_at) / Fold change /veh LOC100653217 /// NTM (11731650_a_at) / RFU MAPK11 (11762145_a_at) / Fold change /veh MAPK11 (11762145_a_at) / RFU FIZ1 (11724087_x_at) / Fold change /veh FIZ1 (11724087_x_at) / RFU OASL (11726364_x_at) / Fold change /veh OASL (11726364_x_at) / RFU SOX15 (11748057_x_at) / Fold change /veh SOX15 (11748057_x_at) / RFU CD79A (11719716_a_at) / Fold change /veh CD79A (11719716_a_at) / RFU HIST1H1D (11736915_at) / Fold change /veh HIST1H1D (11736915_at) / RFU CASKIN2 (11723855_a_at) / Fold change /veh CASKIN2 (11723855_a_at) / RFU LOC730098 (11760151_x_at) / Fold change /veh LOC730098 (11760151_x_at) / RFU OR4N2 (11742367_at) / Fold change /veh OR4N2 (11742367_at) / RFU PRRT2 (11749266_a_at) / Fold change /veh PRRT2 (11749266_a_at) / RFU SNX32 (11753110_a_at) / Fold change /veh SNX32 (11753110_a_at) / RFU CDHR5 (11726645_a_at) / Fold change /veh CDHR5 (11726645_a_at) / RFU RCAN1 (11760418_a_at) / Fold change /veh RCAN1 (11760418_a_at) / RFU FAM167A (11723789_a_at) / Fold change /veh FAM167A (11723789_a_at) / RFU FAM26E (11764081_at) / Fold change /veh FAM26E (11764081_at) / RFU ISYNA1 (11749810_s_at) / Fold change /veh ISYNA1 (11749810_s_at) / RFU ACY1 (11761880_at) / Fold change /veh ACY1 (11761880_at) / RFU 11764098_at / Fold change /veh 11764098_at / RFU SAMD14 (11745864_x_at) / Fold change /veh SAMD14 (11745864_x_at) / RFU NPB (11741838_a_at) / Fold change /veh NPB (11741838_a_at) / RFU TMPRSS6 (11731388_a_at) / Fold change /veh TMPRSS6 (11731388_a_at) / RFU KRTAP10-2 (11738614_at) / Fold change /veh KRTAP10-2 (11738614_at) / RFU ARHGAP8 /// PRR5-ARHGAP8 (11727945_x_at) / Fold change /veh ARHGAP8 /// PRR5-ARHGAP8 (11727945_x_at) / RFU KRTAP5-7 /// NADSYN1 (11734609_at) / Fold change /veh KRTAP5-7 /// NADSYN1 (11734609_at) / RFU RASL12 (11751679_a_at) / Fold change /veh RASL12 (11751679_a_at) / RFU CDKN2B (11736163_a_at) / Fold change /veh CDKN2B (11736163_a_at) / RFU PRF1 (11729649_at) / Fold change /veh PRF1 (11729649_at) / RFU, ZNF638 /// ZNF638-IT1 / Fold change vs veh, ZNF638 /// ZNF638-IT1 / RFU, PANK3 / Fold change vs veh, PANK3 / RFU, SH3YL1 / Fold change vs veh, SH3YL1 / RFU, ZEB2 / Fold change vs veh, ZEB2 / RFU, NRIP1 / Fold change vs veh, NRIP1 / RFU, PTTG1IP / Fold change vs veh, PTTG1IP / RFU, CAPN2 / Fold change vs veh, CAPN2 / RFU, MED14 / Fold change vs veh, MED14 / RFU, SNORA58 / Fold change vs veh, SNORA58 / RFU, C1orf63 / Fold change vs veh, C1orf63 / RFU, LRRFIP1 / Fold change vs veh, LRRFIP1 / RFU, NDUFAF7 / Fold change vs veh, NDUFAF7 / RFU, SLC12A2 / Fold change vs veh, SLC12A2 / RFU, IBTK / Fold change vs veh, IBTK / RFU, ESF1 / Fold change vs veh, ESF1 / Fold change vs veh, TMEM50B / RFU, TAOK1 / Fold change vs veh, TAOK1 / RFU, ACBD3 / Fold change vs veh, ACBD3 / RFU, TMA16 / Fold change vs veh, TMA16 / RFU, RWDD3 / Fold change vs veh, RWDD3 / RFU, BCAT1 / Fold change vs veh, BCAT1 / RFU, EDEM3 / Fold change vs veh, EDEM3 / RFU, TMEM33 / Fold change vs veh, TMEM33 / RFU, WDR75 / Fold change vs veh, WDR75 / RFU, AHCTF1 / Fold change vs veh, AHCTF1 / RFU, TFRC / Fold change vs veh, TFRC / RFU, ZDHHC17 / Fold change vs veh, ZDHHC17 / RFU, NOM1 / Fold change vs veh, NOM1 / RFU, ARL8B / Fold change vs veh, ARL8B / RFU, ZBTB11 / Fold change vs veh, ZBTB11 / RFU, TAMM41 / Fold change vs veh, TAMM41 / RFU, KIAA1704 /// LOC100996395 / Fold change vs veh, KIAA1704 /// LOC100996395 / RFU, ING1 / Fold change vs veh, ING1 / RFU, TRMT61B / Fold change vs veh, TRMT61B / RFU, FUBP3 / Fold change vs veh, FUBP3 / RFU, TP53 / Fold change vs veh, TP53 / RFU, TNKS2 / Fold change vs veh, TNKS2 / RFU, ZFP14 / Fold change vs veh, ZFP14 / RFU, ACTR2 / Fold change vs veh, ACTR2 / RFU, PPP3R1 / Fold change vs veh, PPP3R1 / RFU, PIK3R1 / Fold change vs veh, PIK3R1 / RFU, HNRNPA1 / Fold change vs veh, HNRNPA1 / RFU, RNF170 / Fold change vs veh, RNF170 / RFU, ZNF28 / Fold change vs veh, ZNF28 / RFU, RNGTT / Fold change vs veh, RNGTT / RFU, OGT / Fold change vs veh, OGT / RFU, BRD1 / Fold change vs veh, BRD1 / RFU, MARS / Fold change vs veh, MARS / RFU, ZNF655 / Fold change vs veh, ZNF655 / RFU, FAHD1 / Fold change vs veh, FAHD1 / RFU, BDP1 / Fold change vs veh, BDP1 / RFU, LRRCC1 / Fold change vs veh, LRRCC1 / RFU, ARID1A / Fold change vs veh, ARID1A / RFU, ZNF146 / Fold change vs veh, ZNF146 / RFU, ZNF330 / Fold change vs veh, ZNF330 / RFU, GPN3 / Fold change vs veh, GPN3 / RFU, C9orf123 / Fold change vs veh, C9orf123 / RFU, N4BP2L2 / Fold change vs veh, N4BP2L2 / RFU, ARFIP1 / Fold change vs veh, ARFIP1 / RFU, FAM179B / Fold change vs veh, FAM179B / RFU, BCL10 / Fold change vs veh, BCL10 / RFU, UHRF1BP1L / Fold change vs veh, UHRF1BP1L / RFU, BET1 / Fold change vs veh, BET1 / RFU, CNOT2 / Fold change vs veh, CNOT2 / RFU, ZNF268 / Fold change vs veh, ZNF268 / Fold change vs veh, ZNF507 / RFU, DGCR2 / Fold change vs veh, DGCR2 / RFU, WDSUB1 / Fold change vs veh, WDSUB1 / Fold change vs veh, HSP90B1 /// MIR3652 / RFU, ADSS / Fold change vs veh, ADSS / RFU, GK / Fold change vs veh, GK / RFU, ZNF148 / Fold change vs veh, ZNF148 / RFU, TAF9 / Fold change vs veh, TAF9 / RFU, SLC1A5 / Fold change vs veh, SLC1A5 / RFU, SLMO2 / Fold change vs veh, SLMO2 / RFU, ABCC4 / Fold change vs veh, ABCC4 / RFU, LOC101060439 /// RAP1B / Fold change vs veh, LOC101060439 /// RAP1B / RFU, RFX7 / Fold change vs veh, RFX7 / RFU, GTPBP10 / Fold change vs veh, GTPBP10 / RFU, CNEP1R1 / Fold change vs veh, CNEP1R1 / RFU, BIVM-ERCC5 /// ERCC5 / Fold change vs veh, BIVM-ERCC5 /// ERCC5 / RFU, ILF3 / Fold change vs veh, ILF3 / RFU 11762660_at / Fold change /veh 11762660_at / RFU VCAN (11757783_s_at) / Fold change /veh VCAN (11757783_s_at) / RFU DDX43 (11728927_at) / Fold change /veh DDX43 (11728927_at) / RFU KRT8 (11758188_x_at) / Fold change /veh KRT8 (11758188_x_at) / RFU NKD1 (11759106_at) / Fold change /veh NKD1 (11759106_at) / RFU SRD5A1 (11742802_a_at) / Fold change /veh SRD5A1 (11742802_a_at) / RFU TPSAB1 /// TPSB2 (11721975_s_at) / Fold change /veh TPSAB1 /// TPSB2 (11721975_s_at) / RFU GSTM3 (11746129_a_at) / Fold change /veh GSTM3 (11746129_a_at) / RFU IL23R (11737362_x_at) / Fold change /veh IL23R (11737362_x_at) / RFU TMEM51 (11727254_a_at) / Fold change /veh TMEM51 (11727254_a_at) / RFU PIWIL2 (11732686_x_at) / Fold change /veh PIWIL2 (11732686_x_at) / RFU ORM1 (11744905_x_at) / Fold change /veh ORM1 (11744905_x_at) / RFU CCDC152 (11743942_at) / Fold change /veh CCDC152 (11743942_at) / RFU ECM1 (11717891_a_at) / Fold change /veh ECM1 (11717891_a_at) / RFU IL23R (11748794_a_at) / Fold change /veh IL23R (11748794_a_at) / RFU TNFAIP8L3 (11732012_x_at) / Fold change /veh TNFAIP8L3 (11732012_x_at) / RFU MBOAT4 (11741988_at) / Fold change /veh MBOAT4 (11741988_at) / RFU 11764193_at / Fold change /veh 11764193_at / RFU TMEM53 (11763286_at) / Fold change /veh TMEM53 (11763286_at) / RFU MAGEB2 (11727129_at) / Fold change /veh MAGEB2 (11727129_at) / RFU TMEM200A (11744735_a_at) / Fold change /veh TMEM200A (11744735_a_at) / RFU CCDC152 (11751479_a_at) / Fold change /veh CCDC152 (11751479_a_at) / RFU FAM211A (11726209_a_at) / Fold change /veh FAM211A (11726209_a_at) / RFU RGS16 (11746705_a_at) / Fold change /veh RGS16 (11746705_a_at) / RFU VCAN (11755009_s_at) / Fold change /veh VCAN (11755009_s_at) / RFU RHOB (11743442_s_at) / Fold change /veh RHOB (11743442_s_at) / RFU RGS16 (11720943_a_at) / Fold change /veh RGS16 (11720943_a_at) / RFU RGS16 (11720944_at) / Fold change /veh RGS16 (11720944_at) / RFU, VPS4B / Fold change vs veh, VPS4B / RFU, CREB1 / Fold change vs veh, CREB1 / RFU, DNAJC13 / Fold change vs veh, DNAJC13 / RFU, GNAQ / Fold change vs veh, GNAQ / RFU, CDK5R1 / Fold change vs veh, CDK5R1 / RFU, ZRANB3 / Fold change vs veh, ZRANB3 / RFU, CUL4A / Fold change vs veh, CUL4A / RFU, CCNY / Fold change vs veh, CCNY / RFU, UFL1 / Fold change vs veh, UFL1 / RFU, COG3 / Fold change vs veh, COG3 / RFU, DIAPH2 / Fold change vs veh, DIAPH2 / RFU, SKA2 / Fold change vs veh, SKA2 / RFU, AFF3 / Fold change vs veh, AFF3 / RFU, LMF1 / Fold change vs veh, LMF1 / RFU, IPO11 / Fold change vs veh, IPO11 / RFU, DFFB / Fold change vs veh, DFFB / RFU, FOXP1 / Fold change vs veh, FOXP1 / RFU, CARD8 / Fold change vs veh, CARD8 / RFU, STRN3 / Fold change vs veh, STRN3 / RFU, ADK / Fold change vs veh, ADK / RFU, RASSF2 / Fold change vs veh, RASSF2 / RFU, WIPF1 / Fold change vs veh, WIPF1 / RFU, LARP1B / Fold change vs veh, LARP1B / RFU, RASA1 / Fold change vs veh, RASA1 / RFU, RB1 / Fold change vs veh, RB1 / RFU, PPFIA1 / Fold change vs veh, PPFIA1 / RFU, MAT2A / Fold change vs veh, MAT2A / RFU, CCT5 / Fold change vs veh, CCT5 / RFU, WDR92 / Fold change vs veh, WDR92 / RFU, CUX1 / Fold change vs veh, CUX1 / RFU, TTC7A / Fold change vs veh, TTC7A / RFU, TMEM135 / Fold change vs veh, TMEM135 / RFU, DEPTOR / Fold change vs veh, DEPTOR / RFU, CPM / Fold change vs veh, CPM / RFU, DNAJB6 / Fold change vs veh, DNAJB6 / RFU, CACNA2D3 / Fold change vs veh, CACNA2D3 / RFU, DTX4 / Fold change vs veh, DTX4 / RFU, TFCP2 / Fold change vs veh, TFCP2 / RFU, GMCL1 /// GMCL1P1 / Fold change vs veh, GMCL1 /// GMCL1P1 / RFU, AEBP2 / Fold change vs veh, AEBP2 / RFU, SNHG1 /// SNORD22 /// SNORD25 /// SNORD26 /// SNORD27 /// SNORD28 /// SNORD29 /// SNORD31 / Fold change vs veh, SNHG1 /// SNORD22 /// SNORD25 /// SNORD26 /// SNORD27 /// SNORD28 /// SNORD29 /// SNORD31 / Fold change (Aza/veh), C12orf56 (ProbeSet 11735607_a_at) / Fold change (ACY-1035/veh), C12orf56 (ProbeSet 11735607_a_at) / Fold change (Aza/veh), FGFR1OP (ProbeSet 11751329_s_at) / Fold change (ACY-1035/veh), FGFR1OP (ProbeSet 11751329_s_at) / Fold change (Aza/veh), VPS36 (ProbeSet 11739960_a_at) / Fold change (ACY-1035/veh), VPS36 (ProbeSet 11739960_a_at) / RFU SYPL1 (11715823_x_at) / Fold change /veh SYPL1 (11715823_x_at) / RFU IGFBP7 (11715501_s_at) / Fold change /veh IGFBP7 (11715501_s_at) / RFU REEP3 (11722064_at) / Fold change /veh REEP3 (11722064_at) / RFU IGLL1 (11728026_x_at) / Fold change /veh IGLL1 (11728026_x_at): dose or concentration left out as unconfirmed. Particulars: ProbeSet 11755070_a_at; LIST D.

As to `Nc1ccc(-c2cccs2)cc1NC(=O)c1ccc2c(c1)cc(C1CC1)n2CCN1CCOCC1` [ACY-1035], the “Fold change vs veh, CARD8” value stood at 0.85.
